In article PMC3474771, “Evaluation of 14 Organic Solvents and Carriers for Screening Applications in Zebrafish Embryos and Larvae” (PLoS ONE, 2012):
Like-named read-outs stand apart in the source and are kept apart here.

System: zebrafish embryos and larvae
Details: for Maximum-tolerated concentration (MTC): highest concentration with no phenotypic abnormalities, followed to 9 dpf
Method: Zebrafish embryos of the AB wild-type strain (originally obtained from the Zebrafish International Resource Center, Eugene, Oregon, USA) were raised at 28°C. Zebrafish husbandry, embryo collection, and embryo and larva maintenance were performed as described, [21]. Toxicity assays were standardly performed in 24-well microtiter plates (wrapped with Parafilm to limit solvent evaporation) using 10 embryos per well in 1 ml of 0.3× Danieau's medium (17 mM NaCl, 2 mM KCl, 0.12 mM MgSO4, 1.8 mM Ca(NO3)2 and 1.5 mM HEPES, pH 7.6). Each experiment was repeated 3 times for a total of 30 embryos or larvae analyzed per solvent per developmental staged tested. Data were only recorded for experiments in which the percentage of normal embryos or larvae in the control group was at least 90%. […] In determining the maximum tolerated concentration (MTC) for each solvent and carrier, all post-exposure embryos and larvae were allowed to develop in larva medium to 9 dpf, so as to detect any deleterious effects appearing after this 24-hour window. Solvents and carriers were obtained from the following suppliers: acetone (Chemlab, Zedelgem, Belgium), acetonitrile (Acros Organics, Geel, Belgium), albumin (BSA, Sigma-Aldrich, Bornem, Belgium), butanone (Riedel-de Haën, Seelze, Germany), cyclodextrin (2- hydroxypropyl-beta-cyclodextrin, Sigma-Aldrich), dimethyl formamide (Acros), DMSO (Agros), ethanol (Fisher Scientific, Doornik, Belgium), glycerol (Acros), isopropanol (Chemlab), methanol (Chemlab), polyethylene glycol-400 (Fluka, Bornem, Belgium), propylene glycol (Certa, Eigenbrakel, Belgium), solketal (Merck, Overijse, Belgium). Statistical analyses were done using chi-square in Microsoft Excel.
Twelve solvents and 2 carriers – chosen based solely on their potential utility for the solubilization and delivery of a structurally diverse range of small molecules – were analyzed for their effects on zebrafish embryos and larvae. The solvents included acetone, acetonitrile, butanone, dimethyl formamide, DMSO, ethanol, glycerol, isopropanol, methanol, polyethylene glycol (PEG-400), propylene glycol, and solketal, and the carriers included albumin (BSA) and cyclodextrin (2-hydroxypropyl-beta-cyclodextrin, or HPBCD). […] For this initial study, the effects of a 24-hour exposure to each solvent and carrier was analyzed using embryos and larvae at the following developmental stages: 2–4 cell, 4 hours-post fertilization (hpf), and 1, 2, 3, 4, and 7 days post-fertilization (dpf).

[1] = 24 hours exposure from 2–4 cell stage
[2] = exposure for 24 hours beginning at 1 dpf
[3] = exposure for 24 hours beginning at 2 dpf
[4] = exposure for 24 hours beginning at 2–4 cell stage
[5] = exposure for 24 hours beginning at 3 dpf
[6] = exposure for 24 hours beginning at 4 dpf
[7] = exposure for 24 hours beginning at 4 hpf
[8] = exposure for 24 hours beginning at 5 dpf
[9] = exposure for 24 hours beginning at 7 dpf
[10] = exposure from 1 dpf, at the concentration in parentheses
[11] = exposure from 2 dpf, at the concentration in parentheses
[12] = exposure from 3 dpf, at the concentration in parentheses
[13] = exposure from 7 dpf, at the concentration in parentheses
[14] = exposure from 4 dpf, at the concentration in parentheses

## OCC(O)CO [Glycerol]
24 hours exposure from 1 dpf
  Lowest concentration at which an average penetrance of at least 50% was observed for the phenotypic effects: 2%
24 hours exposure from 2 dpf
  Lowest concentration at which an average penetrance of at least 50% was observed for the phenotypic effects: 2%
[1]
  Lowest concentration at which an average penetrance of at least 50% was observed for the phenotypic effects: 2.5%
24 hours exposure from 3 dpf
  Lowest concentration at which an average penetrance of at least 50% was observed for the phenotypic effects: 2%
24 hours exposure from 4 hpf
  Lowest concentration at which an average penetrance of at least 50% was observed for the phenotypic effects: 2%
[2]
  Maximum-tolerated concentration (MTC): 1.5%
[3]
  Maximum-tolerated concentration (MTC): 1.5%
[4]
  Maximum-tolerated concentration (MTC): 1.5%
[5]
  Maximum-tolerated concentration (MTC): 1.5%
[6]
  Maximum-tolerated concentration (MTC): 2%
[7]
  Maximum-tolerated concentration (MTC): 1.5%
[8]
  Maximum-tolerated concentration (MTC): >2.5%
Exposure for 24 hours beginning at 5 dpf, listed as glycerol
  Maximum-tolerated concentration (MTC): ≥ 2.5%
[9]
  Maximum-tolerated concentration (MTC): >2.5%
Exposure for 24 hours beginning at 7 dpf, listed as glycerol
  Maximum-tolerated concentration (MTC): ≥ 2.5%

## CC(C)O [Isopropanol, isopropanol]
24 hours exposure from 1 dpf
  Lowest concentration at which an average penetrance of at least 50% was observed for the phenotypic effects: 1%
24 hours exposure from 2 dpf
  Lowest concentration at which an average penetrance of at least 50% was observed for the phenotypic effects: 2%
24 hours exposure from 3 dpf
  Lowest concentration at which an average penetrance of at least 50% was observed for the phenotypic effects: 2%
24 hours exposure from 4 hpf
  Lowest concentration at which an average penetrance of at least 50% was observed for the phenotypic effects: 1.5%
24 hours exposure from 7 dpf
  Lowest concentration at which an average penetrance of at least 50% was observed for the phenotypic effects: 1%
[2]
  Maximum-tolerated concentration (MTC): 0.5%
[3]
  Maximum-tolerated concentration (MTC): 1%
[4]
  Maximum-tolerated concentration (MTC): 0.5%
[5]
  Maximum-tolerated concentration (MTC): 1.5%
[6]
  Maximum-tolerated concentration (MTC): 0.5%
[7]
  Maximum-tolerated concentration (MTC): 1%
[8]
  Maximum-tolerated concentration (MTC): <0.5%
[9]
  Maximum-tolerated concentration (MTC): 0.5%
[10]
  Phenotypic effects above MTC after 24 hours (average penetrance at least 50%): AP IC
[11]
  Phenotypic effects above MTC after 24 hours (average penetrance at least 50%): IC LP
[12]
  Phenotypic effects above MTC after 24 hours (average penetrance at least 50%): BC IC IM HJ PE
[13]
  Phenotypic effects above MTC after 24 hours (average penetrance at least 50%): IC LP NB PE

## CCO [Ethanol, ethanol]
24 hours exposure from 1 dpf
  Lowest concentration at which an average penetrance of at least 50% was observed for the phenotypic effects: 2%
24 hours exposure from 2 dpf
  Lowest concentration at which an average penetrance of at least 50% was observed for the phenotypic effects: 2%
[1]
  Lowest concentration at which an average penetrance of at least 50% was observed for the phenotypic effects: 1.5%
24 hours exposure from 3 dpf
  Lowest concentration at which an average penetrance of at least 50% was observed for the phenotypic effects: 2%
24 hours exposure from 4 dpf
  Lowest concentration at which an average penetrance of at least 50% was observed for the phenotypic effects: 2%
24 hours exposure from 4 hpf
  Lowest concentration at which an average penetrance of at least 50% was observed for the phenotypic effects: 1.5%
24 hours exposure from 5 dpf
  Lowest concentration at which an average penetrance of at least 50% was observed for the phenotypic effects: 2.5%
24 hours exposure from 7 dpf
  Lowest concentration at which an average penetrance of at least 50% was observed for the phenotypic effects: 1.5%
[2]
  Maximum-tolerated concentration (MTC): 1%
[3]
  Maximum-tolerated concentration (MTC): 1.5%
[4]
  Maximum-tolerated concentration (MTC): 1%
[5]
  Maximum-tolerated concentration (MTC): 1%
[6]
  Maximum-tolerated concentration (MTC): 1.5%
[7]
  Maximum-tolerated concentration (MTC): 0.5%
[8]
  Maximum-tolerated concentration (MTC): 0.5%
[9]
  Maximum-tolerated concentration (MTC): 1%

## Albumin (BSA): bovine serum albumin (BSA), carrier
0.5% from 4-cell stage, embryos at 1 dpf, morphologically normal
  Delay in development relative to control: up to 9 hours
[1]
  Lowest concentration at which an average penetrance of at least 50% was observed for the phenotypic effects: 0.5%
24 hours exposure from 3 dpf
  Lowest concentration at which an average penetrance of at least 50% was observed for the phenotypic effects: 1.5%
24 hours exposure from 4 dpf
  Lowest concentration at which an average penetrance of at least 50% was observed for the phenotypic effects: 1.5%
24 hours exposure from 4 hpf
  Lowest concentration at which an average penetrance of at least 50% was observed for the phenotypic effects: 0.5%
[2]
  Maximum-tolerated concentration (MTC): <0.5%
[3]
  Maximum-tolerated concentration (MTC): 0.5%
[4]
  Maximum-tolerated concentration (MTC): <0.5%
[5]
  Maximum-tolerated concentration (MTC): 0.5%
[7]
  Maximum-tolerated concentration (MTC): <0.5%
[8]
  Maximum-tolerated concentration (MTC): ≥2.5%
Exposure for 24 hours beginning at 5 dpf, listed as BSA
  Maximum-tolerated concentration (MTC): ≥ 2.5%
[9]
  Maximum-tolerated concentration (MTC): ≥2.5%
Exposure for 24 hours beginning at 7 dpf, listed as BSA
  Maximum-tolerated concentration (MTC): ≥ 2.5%
[14]
  Phenotypic effects above MTC after 24 hours (average penetrance at least 50%): IC PE

## CC(O)COC[C@H]1O[C@@H]2O[C@H]3[C@H](O)[C@@H](O)[C@@H](O[C@H]4[C@H](O)[C@@H](O)[C@@H](O[C@H]5[C@H](O)[C@@H](O)[C@@H](O[C@H]6[C@H](O)[C@@H](O)[C@@H](O[C@H]7[C@H](O)[C@@H](O)[C@@H](O[C@H]8[C@H](O)[C@@H](O)[C@@H](O[C@H]1[C@H](O)[C@H]2O)O[C@@H]8COCC(C)O)O[C@@H]7COCC(C)O)O[C@@H]6COCC(C)O)O[C@@H]5COCC(C)O)O[C@@H]4COCC(C)O)O[C@@H]3COCC(C)O (stereo partly drawn) [Cyclodextrin (HPBCD), 2-hydroxypropyl-beta-cyclodextrin]
[2]
  Maximum-tolerated concentration (MTC): 1%
[3]
  Maximum-tolerated concentration (MTC): 1.5%
[4]
  Maximum-tolerated concentration (MTC): 1%
[5]
  Maximum-tolerated concentration (MTC): 1.5%
[6]
  Maximum-tolerated concentration (MTC): 1%
[7]
  Maximum-tolerated concentration (MTC): 0.5%
[8]
  Maximum-tolerated concentration (MTC): 1.5%
[9]
  Maximum-tolerated concentration (MTC): 1%
Over all or most developmental stages analyzed, 24-hour exposure
  MTC / tolerated concentration: 1%

## CO [Methanol, methanol]
[1]
  Lowest concentration at which an average penetrance of at least 50% was observed for the phenotypic effects: 2%
24 hours exposure from 3 dpf
  Lowest concentration at which an average penetrance of at least 50% was observed for the phenotypic effects: 2.5%
24 hours exposure from 4 hpf
  Lowest concentration at which an average penetrance of at least 50% was observed for the phenotypic effects: 2%
24 hours exposure from 7 dpf
  Lowest concentration at which an average penetrance of at least 50% was observed for the phenotypic effects: 2.5%
[2]
  Maximum-tolerated concentration (MTC): 1.5%
[3]
  Maximum-tolerated concentration (MTC): >2.5%
[4]
  Maximum-tolerated concentration (MTC): 1.5%
[5]
  Maximum-tolerated concentration (MTC): 2%
[6]
  Maximum-tolerated concentration (MTC): 1%
[7]
  Maximum-tolerated concentration (MTC): 1.5%
[8]
  Maximum-tolerated concentration (MTC): >2.5%
[9]
  Maximum-tolerated concentration (MTC): 2%
In vivo
  Phenotypic effects above MTC after 24 hours (average penetrance at least 50%): NB LP

## CC1(C)OCC(CO)O1 (centres unmarked) [Solketal]
24 hours exposure from 1 dpf
  Lowest concentration at which an average penetrance of at least 50% was observed for the phenotypic effects: 1%
24 hours exposure from 2 dpf
  Lowest concentration at which an average penetrance of at least 50% was observed for the phenotypic effects: 1%
24 hours exposure from 3 dpf
  Lowest concentration at which an average penetrance of at least 50% was observed for the phenotypic effects: 1%
24 hours exposure from 4 dpf
  Lowest concentration at which an average penetrance of at least 50% was observed for the phenotypic effects: 0.5%
24 hours exposure from 4 hpf
  Lowest concentration at which an average penetrance of at least 50% was observed for the phenotypic effects: 1%
24 hours exposure from 5 dpf
  Lowest concentration at which an average penetrance of at least 50% was observed for the phenotypic effects: 0.5%
24 hours exposure from 7 dpf
  Lowest concentration at which an average penetrance of at least 50% was observed for the phenotypic effects: 0.5%
[2]
  Maximum-tolerated concentration (MTC): 0.5%
[3]
  Maximum-tolerated concentration (MTC): 0.5%
[4]
  Maximum-tolerated concentration (MTC): <0.5%
Exposure for 24 hours beginning at 2–4 cell stage, listed as solketal
  Maximum-tolerated concentration (MTC): < 0.5%
[5]
  Maximum-tolerated concentration (MTC): 0.5%
[6]
  Maximum-tolerated concentration (MTC): <0.5%
[7]
  Maximum-tolerated concentration (MTC): 0.5%
[8]
  Maximum-tolerated concentration (MTC): <0.5%
[9]
  Maximum-tolerated concentration (MTC): <0.5%
[10]
  Phenotypic effects above MTC after 24 hours (average penetrance at least 50%): AP BH IC IM NB PE
[11]
  Phenotypic effects above MTC after 24 hours (average penetrance at least 50%): AP BH IC PE
[12]
  Phenotypic effects above MTC after 24 hours (average penetrance at least 50%): AH IC IM HJ PE
[14]
  Phenotypic effects above MTC after 24 hours (average penetrance at least 50%): BC LP
Exposure from 5 dpf, at the concentration in parentheses
  Phenotypic effects above MTC after 24 hours (average penetrance at least 50%): NB LP SB+
[13]
  Phenotypic effects above MTC after 24 hours (average penetrance at least 50%): NB LP
